One experiment has as its target T1, human VEGFR-2 (Homo sapiens, UniProt P35968).
T1 construct: VEGFR-2 in HepG2 cell line; endogenous in cells; host or cells: HepG2
Description: In vitro VEGFR-2 enzyme inhibition assay (Human VEGFR-2 ELISA kit). It counts as biochemical. The procedure: (§1) 3- 4.2. Experimental of biological testing
4.2.1. In vitro anti-proliferative activity […]
The tested cell lines were purchased and dropped on the appropriate growth medium. The growth medium was supplemented with […] of streptomycin, 100 units/mL of penicillin and 10% of heat-inactivated fetal bovine serum in a humidified 5% (v/v) CO2 atmosphere at 37 ◦C. […]
(§2) 4.2.2. In vitro VEGFR-2 kinase assay
(§3) The synthesized compounds were estimated for their in vitro inhibition on human VEGFR-2 in HepG2 cell line; using ELISA kit. Firstly, a plate was used for the assay […]
nominated as a standard VEGFR-2 inhibitor. Both standard and samples were added to the wells and incubated overnight at 4 ◦C, then washed. The biotinylated antibody was supplemented and further incubated for 1 h at room temperature. The unreacted, liberated antibody was then washed; followed by addition of HRP-conjugated streptavidin and incubated for 45 min at room temperature. Wells were washed and a TMB substrate solution was added and kept at room temperature for 30 min. Finally, the stop solution was added, and the intensity of the color produced was measured at […]
On the technique in general: In an ELISA, binding on a coated surface is turned into a signal by an enzyme label.

Another experiment relates to HCT-116. Description: MTT anti-proliferative assay, HCT-116. The format is cell-based. The settings on record: Homo sapiens, HCT-116 colorectal cancer cells, read-out: Cytotoxicity IC50 HCT-116. As for the experimental part: [Worded in the source for another cell line; this cell line is reported under the same test.] (§4) MTT procedure[41]^,[42] was applied for the determination of the anti-proliferative activity as described in Supplementary data.
as §1
(§5) 4.2.1. In vitro anti-proliferative activity
(§6) The in vitro antiproliferative activities of the synthesized compounds were evaluated against two human tumor cell lines: hepatocellular carcinoma (HepG2) and breast cancer (MCF-7) using MTT assay protocol The commercially available […]
(§7) The tested cell lines were purchased and dropped on the appropriate growth medium. The growth medium was supplemented with […] of streptomycin, 100 units/mL of penicillin and 10% of heat-inactivated fetal bovine serum in a humidified 5% (v/v) CO2 atmosphere at 37 ◦C.
(§8) Then the cells from the two cancer cell lines were seeded at the appropriate densities into 96-well microtiter plates. After incubation for 24 h, the growth medium of each cell was treated with graded concentrations (0.1, 10, 100 and 1000 μM) of the test compounds and incubated for three days. The viability of treated cells was determined using 3-[4,5-dimethylthiazole-2-yl]- 2,5-diphenyltetrazolium bromide (MTT) technique as cells were stained with 5% MTT solution and allowed to break down the dye into colored-insoluble formazan crystals for 4 h. The formazan crystals were dissolved in acidified isopropanol for 30 min with continuous shaking at room temperature. The colorimetric assay was measured and recorded at absorbance of 570 nm. The cell viability was expressed as percentage of control and the concentration that […]
(§9) 100% viability and group treated with a mixture of toxic compounds as 0% viability.
(IC50) were determined for each compound using Graph Pad Prism version 5 software by plotting of log C against % viability.
as §2, §3
nominated as a standard VEGFR-2 inhibitor. Both standard and samples were added to the wells and incubated overnight at 4 ◦C, then washed. The biotinylated antibody was supplemented and further incubated for 1 h at room temperature. The unreacted, […]
Background: Tetrazolium dyes change colour on reduction, which living cells bring about.

The test system of another experiment is HepG-2. Description: MTT anti-proliferative assay, HepG-2. The format is cell-based. The settings on record: Homo sapiens, HepG2, HepG-2 hepatocellular carcinoma cells, read-out: Cytotoxicity IC50 HepG-2. As for the experimental part:
as §4, §1, §5, §6, §7, §8, §9
(IC50) were determined for each compound using Graph Pad Prism version 5 software by plotting of log C against % viability. […]

Experiment [1] has as its system HCT-116 cells. Description: Cell cycle analysis by PI staining and flow cytometry. It counts as cell-based, human. The settings on record: 48 h. The procedure: Numerous anti-proliferative agents produce their effect by either arresting the cell growth at a particular point of the cell cycle or the induction of apoptosis, or by a combined effect. Taking compound 7 as a representative example of the tested compounds, its effect on the cell-cycle arrest of the HCT-116 cells for 48 h was evaluated by flow cytometry assay using the untreated HCT-116 as a control.
Cell cycle analysis was performed using propidium iodide (PI) staining and flow cytometry analysis for compound 7 as described in Supplementary data[44]^,[45]. […]
5% CO2. Cells were washed twice with phosphate buffer saline, then the centrifugation of cell pellets had been completed, followed by preservation with ice-cold 70% ethanol for 15 min. Pellets were collected again and incubated with propidium iodide (PI) staining solution. After incubation for one hour at room temperature, it was analyzed by flowcytometry on an FC500 cytometer (Beckman Coulter) and the cell cycle distributions were calculated. […]
A general note: Flow cytometry measures light scatter and fluorescence of single cells or particles in a stream.

Experiment [2] concerns HCT-116 cells. Description: Apoptosis assay, FITC-Annexin V/PI flow cytometry. The format is cell-based, human. To be noted: 15.70 μM, 48 h. As for the experimental part: To determine whether apoptosis induction is involved in the anti-proliferative effects of the synthesised compounds, the apoptosis assay was performed for compound 7 against HCT-116 cells. The cells were incubated with either vehicle or compound 7 at a concentration of 15.70 μM for 48 h and then stained with FITC-Annexin V and propidium iodide (PI). The percentages of apoptotic HCT-116 cells were determined by flow cytometry analysis.
Flow cytometry cell apoptosis analysis was used to investigate the apoptotic effect of compound 7 as described in Supplementary data[46]^,[47]. […]
4.2.4. Flow cytometry analysis for apoptosis
Flow cytometry cell apoptosis analysis was used to investigate the apoptotic […]
AnnexinV-fluorescein isothiocyanate (Annexin V-FITC) is a protein that has high affinity to phosphatidyl serine PS, which can be detected by staining with Annexin V-(FITC) and counter staining with propidium iodide (PI). In such procedure, HepG2 cells were incubated together with the tested compound […] for 24 h. Then, the cells were centrifuged, collected by trypsin, washed with PBS two successive times, and suspended in […] of binding buffer. The double staining Annexin V-FITC […] were added to the cells and incubated in the dark for 5 min at room temperature. The stained cells were analyzed for flow cytometry using FACS caliber flow cytometer and apoptosis detection kit (BD Biosciences, San Jose, CA)

A further experiment deals with IL-6. Description: qRT-PCR level of IL-6 in HCT-116 cells. It counts as cell-based, human. The settings on record: 24 h, compound 7 at 15.70 µM, compound 10 at […]. The procedure: (§10) Dexamethasone as a universal immunomodulatory drug was used as a reference molecule.
(§11) The effect of compounds 7 and 10 on the expression of TNF-α and IL-6 were determined using qRT-PCR as described in Supplementary data[48–50].
(§12) 4.2.5. Quantitative Real Time Reverse-Transcriptase PCR technique
(§13) The quantity of immunomodulatory proteins (TNF-α and IL-6) in control and compounds 7, 10 (at the IC50 concentration)-treated HepG2 cells was as sessed by qRT-PCR (reference). Total RNA from vehicle -treated control (0.01% DMSO) and […] HepG2 cells were extracted as -per the manufacturer instructi ons (RNeasy mini kit, Qiagen, Germany). After RNA extraction, cDNA was prepared using the Revert Aid First Strand cDNA Synthesis kit (Thermo Scientific, USA). Amplification of target cDNA for apoptosis markers and GAPDH [as a normalization (housekeeping) gene] was done using one-step RT-PCR SYBR® Green kit Master Mix (Bio‐Rad
(§14) Laboratories, USA) on Rotor -Gene Q real-time PCR thermal cycler instrument. cDNA (2 μl aliquots) was mixed with 1 μl of forward primer, 1 μl re verse primer, 10 μl master mixture, and the reaction volume was completed to 20 μl with nuclease -free water. All experiments were performed in tri plicates
(§15) 4- 4.3. Experimental of in silico studies

The subject of the next experiment is TNF-α. Description: qRT-PCR level of TNF-α in HCT-116 cells. The format is cell-based, human. To be noted: 24 h, compound 7 at 15.70 µM, compound 10 at […]. As for the experimental part: as §10, §11, §12, §13, §14, §15

T1 sequence (P35968 20-1356): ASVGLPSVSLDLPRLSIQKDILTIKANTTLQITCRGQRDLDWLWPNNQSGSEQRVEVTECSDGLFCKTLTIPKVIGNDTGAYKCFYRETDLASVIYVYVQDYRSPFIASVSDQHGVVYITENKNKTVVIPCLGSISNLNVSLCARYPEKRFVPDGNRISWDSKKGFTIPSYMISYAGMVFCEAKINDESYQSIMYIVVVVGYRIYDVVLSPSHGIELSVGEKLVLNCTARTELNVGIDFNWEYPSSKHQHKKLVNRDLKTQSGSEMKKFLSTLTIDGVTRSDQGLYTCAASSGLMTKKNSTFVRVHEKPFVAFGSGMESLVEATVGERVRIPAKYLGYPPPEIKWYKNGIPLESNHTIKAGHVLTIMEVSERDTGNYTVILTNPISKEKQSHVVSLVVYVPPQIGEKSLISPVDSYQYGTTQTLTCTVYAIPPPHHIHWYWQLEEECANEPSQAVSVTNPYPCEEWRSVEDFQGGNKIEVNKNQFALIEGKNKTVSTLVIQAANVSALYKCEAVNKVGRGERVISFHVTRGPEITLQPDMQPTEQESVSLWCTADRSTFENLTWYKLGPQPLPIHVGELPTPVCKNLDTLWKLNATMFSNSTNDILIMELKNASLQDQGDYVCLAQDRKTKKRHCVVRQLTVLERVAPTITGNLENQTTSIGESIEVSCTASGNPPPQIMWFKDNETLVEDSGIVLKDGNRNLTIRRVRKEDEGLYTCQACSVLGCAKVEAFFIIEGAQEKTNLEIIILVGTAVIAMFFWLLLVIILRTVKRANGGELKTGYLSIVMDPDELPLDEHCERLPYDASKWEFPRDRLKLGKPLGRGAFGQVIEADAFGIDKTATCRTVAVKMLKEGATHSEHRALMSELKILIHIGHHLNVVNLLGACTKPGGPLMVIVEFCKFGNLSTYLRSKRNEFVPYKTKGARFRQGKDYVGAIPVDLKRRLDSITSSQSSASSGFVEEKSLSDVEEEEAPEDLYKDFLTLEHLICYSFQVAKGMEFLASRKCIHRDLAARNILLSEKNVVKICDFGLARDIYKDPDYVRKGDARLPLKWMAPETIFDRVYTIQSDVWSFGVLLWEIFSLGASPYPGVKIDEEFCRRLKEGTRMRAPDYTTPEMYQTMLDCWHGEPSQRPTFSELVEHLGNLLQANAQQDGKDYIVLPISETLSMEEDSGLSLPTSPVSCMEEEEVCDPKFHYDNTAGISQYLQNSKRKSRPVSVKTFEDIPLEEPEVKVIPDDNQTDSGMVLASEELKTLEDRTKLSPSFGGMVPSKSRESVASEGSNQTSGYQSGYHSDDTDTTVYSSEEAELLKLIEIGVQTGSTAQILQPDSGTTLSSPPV

Consider `O=C(N/N=C/c1cccc([N+](=O)[O-])c1)c1ccc(NC(=O)c2cccnc2)cc1` [Compound 6, (E)-N-(4–(2-(3-Nitrobenzylidene)hydrazine-1-carbonyl)phenyl)nicotinamide], for which the figures for the IC50 against human VEGFR-2, in the experiment with HCT-116 and with HepG-2 were 292 nM, 22.09 ± 0.064 µM and 19.5 ± 0.063 µM, respectively.

For `COc1cc(/C=N/NC(=O)c2ccc(NC(=O)c3cccnc3)cc2)cc(OC)c1OC` [Compound 7, (E)-N-(4–(2-(3,4,5-Trimethoxybenzylidene)hydrazine-1-carbonyl)phenyl) nicotinamide], in the experiment on HCT-116 cells [1], the “Cell cycle distribution (%) % S” value stood at 26.92%, the “Cell cycle distribution (%) %G0-G1” value stood at 41.92%, the “Cell cycle distribution (%) %G2-M” value is listed as 31.16% and the “Cell cycle distribution (%) %Pre-G1” value amounted to 15.74%. Besides, in the experiment with HCT-116 cells [2], the “Apoptosis Early” value is recorded as 2.75%, the “Apoptosis Late” value came out at 11.26%, the “Apoptosis Total” value turned out to be 15.74% and the “Increase in early-phase apoptotic cells versus control” value is recorded as 4 fold. In the experiment with HCT-116 cells [2], the “Increase in late-phase apoptotic cells versus control” value is given as 6.5 folds, the Necrosis was determined as 1.73% and the “Total apoptosis induction versus control” value stood at 5 folds. Moreover, on human VEGFR-2, the IC50 – broadly, the concentration that gives 50% inhibition – amounted to 250 nM. The 50% inhibitory concentration (IC50) in the experiment with HCT-116 was found to be 15.7 ± 0.058 µM. Also, the IC50 in the experiment with HepG-2 turned out to be 15.5 ± 0.055 µM.

Turning to `C/C(=N\NC(=O)c1ccccc1Cl)c1ccc(NC(=O)c2cccnc2)cc1` [Compound 10], half-maximal inhibition against human VEGFR-2 (IC50) required 145 nM.

For `CC(=O)Nc1ccc(C(=O)N/N=C(\C)c2ccc(NC(=O)c3cccnc3)cc2)cc1` [Compound 11, (E)-N-(4–(1-(2–(4-Acetamidobenzoyl)hydrazono)ethyl)phenyl)nicotinamide], the IC50 against human VEGFR-2 is 86.6 nM; in the experiment on HCT-116, 20.17 ± 0.063 µM; in the experiment with HepG-2, 21.6 ± 0.07 µM.

As for `C[C@@H]1C[C@H]2[C@@H]3CCC4=CC(=O)C=C[C@]4(C)[C@@]3(F)[C@@H](O)C[C@]2(C)[C@@]1(O)C(=O)CO` [Dexamethasone, reference compound], the “IL-6 (% inhibition)” value with IL-6 worked out at 93.15%; in the experiment on IL-6 (listed as dexamethasone), 93.1%. In addition, the “TNF-α (% inhibition)” value in the experiment on TNF-α stood at 82.47%; in the experiment on TNF-α (listed as dexamethasone), 82.4%.

Regarding `CNC(=O)c1cc(Oc2ccc(NC(=O)Nc3ccc(Cl)c(C(F)(F)F)c3)cc2)ccn1` [Sorafenib, reference compound], the IC50 with HCT-116 is 9.3 ± 0.201 µM; with HepG-2, 7.4 ± 0.253 µM.

The record behind these values is PMC9466619, “Anti-cancer and immunomodulatory evaluation of new nicotinamide derivatives as potential VEGFR-2 inhibitors and apoptosis inducers: in vitro and in silico studies” (Journal of Enzyme Inhibition and Medicinal Chemistry, 2022).
